These results are taken from patent publication US8507502B2, “Fused bicyclic and tricyclic pyrimidine compounds as tyrosine kinase inhibitors” (National Health Research Institutes, priority 2008, dated 2013).

One assay relates to HCC827 cells. Description: HCC827 cell viability, MTS assay. To be noted: Homo sapiens, 96-h incubation, read-out: IC50 (concentration which causes 50% of the cell death). The assay is classed as cell-based.
For another assay, the target named is T1, GST-EGFR-KD^WT (Homo sapiens, UniProt P00533).
T1 construct: 50 ng GST-EGFR-KD^WT proteins; made in house
T1 sequence (P00533 712-979 limits assumed): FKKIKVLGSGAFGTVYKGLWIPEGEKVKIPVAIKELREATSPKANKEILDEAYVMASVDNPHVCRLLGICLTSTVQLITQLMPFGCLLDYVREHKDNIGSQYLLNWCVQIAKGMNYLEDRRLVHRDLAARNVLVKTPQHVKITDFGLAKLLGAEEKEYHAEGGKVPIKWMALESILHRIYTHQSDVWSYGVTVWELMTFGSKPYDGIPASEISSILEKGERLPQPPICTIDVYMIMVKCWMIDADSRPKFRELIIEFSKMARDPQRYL
Kind of assay: EGFR kinase assay (Kinase-Glo). Format: biochemical. The note with it: 5 μM ATP, read-out: IC50 (concentration at which activity of 50% of EGFR is inhibited).

Molecules are shown by their SMILES. pIC50: −log10 of the molar value. Like-named read-outs stand apart in the source and are kept apart here.

Protocol for GST-EGFR-KD^WT: Following incubation, 50 μl Kinase-Glo Plus Reagent (Promega) was added and the mixture was further incubated at 25° C. for 20 min.
Protocol for HCC827 cells: HCC827 cell viability was examined by the MTS assay (Promega, Madison, Wis., USA). 1000 HCC827 cells in 100 μl RPMI1640 with 10% FBS medium were seeded in each well of a 96-well plate. After 96-h incubation with a test compound, the cells were further incubated with 20 μl of a MTS/PMS mixture (MTS/PMS ratio: 20:1) in each well of the 96-well plate for 2 h at 37° C. in a humidified incubator with 5% CO2 to allow viable cells to convert the tetrazolium salt (MTS) into formazan. The amount/concentration of formazan, which indicates the number of live cells, was determined by measuring its absorbance at 490 nm using a PerkinElmer Victor2 plate reader (PerkinElmer, Shelton, Conn., USA).

For the molecule `CC[C@@H](Nc1ncnc2sc3c(c12)CCCC3)c1ccccc1` [Compound 23], the pIC50 in the assay on HCC827 cells was 6.00 to 6.52; at GST-EGFR-KD^WT (range given in mixed units) it was 6.05 to 7.00. On the same counts, the results for `OC[C@@H](Nc1ncnc2oc(-c3ccccc3)c(-c3ccccc3)c12)c1ccccc1` [Compound 31, S-2-(5,6-diphenyl-furo[2,3-d]pyrimidin-4-ylamino)-2-phenyl-ethanol] are 6.00 to 6.52 and 6.05 to 7.00. `CC[C@@H](Nc1ncnc2oc(-c3ccccc3)c(-c3ccccc3)c12)c1ccccc1` [Compound 54]: in the assay with HCC827 cells, the pIC50 is 6.00 to 6.52. As for `OC[C@@H](Nc1ncnc2oc(-c3ccccc3)c(Cl)c12)c1ccccc1` [Compound 45], the pIC50 at GST-EGFR-KD^WT (range given in mixed units) was 6.05 to 7.00.

As for `CN(C)C/C=C/C(=O)N1CCc2c(sc3ncnc(N[C@H](CCO)c4ccccc4)c23)C1` [Compound 194], the pIC50 is 7.00 to 9.00 in the assay on HCC827 cells and over 7.23 on GST-EGFR-KD^WT. As to `O=C(O)[C@@H](Nc1ncnc2sc(-c3ccccc3)cc12)c1ccccc1` [Compound 22], the pIC50 on GST-EGFR-KD^WT (range given in mixed units) is 6.05 to 7.00. In the case of `COc1ccc(-c2oc3ncnc(N[C@H](CO)c4ccccc4)c3c2-c2ccc(OC)cc2)cc1` [Compound 36], the pIC50 on GST-EGFR-KD^WT was 7.00 to 7.22.

In the case of `C=CC(=O)Nc1cccc(-c2c(-c3ccccc3)oc3ncnc(N(C)C(COC)c4ccccc4)c23)c1` (stereo not shown) [Compound 247], the pIC50 at GST-EGFR-KD^WT (range given in mixed units) is 6.05 to 7.00.

For `C[C@@H](Nc1ncnc2sc3c(c12)CCN(C(=O)/C=C/CN(C)C)C3)c1ccc(Br)cc1` [Compound 209], the pIC50 in the assay on HCC827 cells was 7.00 to 9.00; at GST-EGFR-KD^WT, over 7.23. With `CCN(C/C=C/C(=O)N1CCc2c(sc3ncnc(N[C@H](C)c4ccccc4)c23)C1)CCO` [Compound 216], the pIC50 was 7.00 to 9.00 with HCC827 cells and over 7.23 at GST-EGFR-KD^WT. On the same counts, the results for `C=CC(=O)Nc1cccc(-c2coc3ncnc(N[C@H](CO)c4ccccc4)c23)c1` [Compound 244] are 6.00 to 6.52 and 7.00 to 7.22. In the case of `CC(C)NC/C=C/C(=O)N1CCc2c(sc3ncnc(N[C@H](C)c4ccccc4)c23)C1` [Compound 204], the values for the pIC50 with HCC827 cells and on GST-EGFR-KD^WT (range given in mixed units) were 7.00 to 9.00 and 6.05 to 7.00, respectively. Take `C/C=C/C(=O)N1CCc2c(sc3ncnc(N[C@H](COCc4cccc(F)c4)c4ccccc4)c23)C1` [Compound 220]: the pIC50 at GST-EGFR-KD^WT is 7.00 to 7.22. As to `CC(=O)Nc1cccc(-c2c(-c3ccccc3)oc3ncnc(N[C@H](CO)c4ccccc4)c23)c1` [Compound 38], the values for the pIC50 in the assay with HCC827 cells and on GST-EGFR-KD^WT (range given in mixed units) were 6.52 to 7.00 and 6.05 to 7.00, respectively. With `CN(C)C/C=C/C(=O)N1CCc2c(sc3ncnc(N[C@H](CO[Si](C)(C)C(C)(C)C)c4ccccc4)c23)C1` [Compound 186], the pIC50 in the assay on HCC827 cells is 6.00 to 6.52; on GST-EGFR-KD^WT, 7.00 to 7.22. `C=CC(=O)Nc1ccc(-c2c(-c3ccccc3)oc3ncnc(N[C@H](CO)c4ccccc4)c23)cc1` [Compound 118, S—N-{4-[4-(2-Hydroxy-1-phenyl-ethylamino)-6-phenyl-furo[2,3-d]pyrimidin-5-yl]-phenyl}-acrylamide]: the pIC50 is 6.00 to 6.52 with HCC827 cells and 7.00 to 7.22 at GST-EGFR-KD^WT. On to `CCN(CC)C/C=C/C(=O)N1CCc2c(sc3ncnc(N[C@H](COC)c4ccccc4)c23)C1` [Compound 230], for which the pIC50 in the assay with HCC827 cells is 7.00 to 9.00; at GST-EGFR-KD^WT it was 7.00 to 7.22. As to `OC[C@@H](Nc1ncnc2oc(-c3ccccc3)c(-c3ccco3)c12)c1ccccc1` [Compound 40], the pIC50 in the assay with HCC827 cells is 6.00 to 6.52; on GST-EGFR-KD^WT (range given in mixed units), 6.05 to 7.00. Consider `CC#CC(=O)Nc1cccc(-c2c(-c3ccccc3)oc3ncnc(N[C@H](COC)c4ccccc4)c23)c1` [Compound 242], for which the pIC50 at GST-EGFR-KD^WT (range given in mixed units) is 6.05 to 7.00.

For `C[C@@H](Nc1ncnc2sc3c(c12)CCN(C(=O)/C=C/CN=[N+]=[N-])C3)c1ccccc1` [Compound 208], the pIC50 in the assay with HCC827 cells was 7.00 to 9.00; at GST-EGFR-KD^WT it was over 7.23. On the same counts, the results for `C=CC(=O)Nc1cccc(-c2csc3ncnc(N[C@H](CO)c4ccccc4)c23)c1` [Compound 246] are 7.00 to 9.00 and over 7.23. In the case of `O=C(O)/C=C\C(=O)N1CCc2c(sc3ncnc(N[C@H](CO)c4ccccc4)c23)C1` [Compound 61], the pIC50 on GST-EGFR-KD^WT (range given in mixed units) was 6.05 to 7.00.

As for `C[C@@H](Nc1ncnc2sc3c(c12)CCN(C(=O)/C=C/CN(C)CCO)C3)c1ccccc1` [Compound 213], the pIC50 in the assay with HCC827 cells was 7.00 to 9.00; on GST-EGFR-KD^WT, over 7.23.

Take `OC[C@@H](Nc1ncnc2oc(-c3ccccc3)c(-c3ccoc3)c12)c1ccccc1` [Compound 41]: the pIC50 is 6.52 to 7.00 in the assay with HCC827 cells and 6.05 to 7.00 at GST-EGFR-KD^WT (range given in mixed units). For the molecule `O=C(O)[C@@H](Nc1ncnc2oc(-c3ccccc3)c(Br)c12)c1ccccc1` [Compound 53], the pIC50 at GST-EGFR-KD^WT was over 7.23. Take `OC[C@@H](Nc1ncnc2sc3c(c12)CCC3)c1ccccc1` [Compound 3]: in the assay on HCC827 cells, the pIC50 is 6.00 to 6.52. `CN(C)C/C=C/C(=O)N1CCc2c(sc3ncnc(N[C@H](COCc4ccc(F)cc4)c4ccccc4)c23)C1` [Compound 219]: the pIC50 is 7.00 to 9.00 in the assay on HCC827 cells and over 7.23 at GST-EGFR-KD^WT. Take `C[C@@H](Nc1ncnc2sc3c(c12)CCN(C(=O)/C=C/CNc1ccccc1)C3)c1ccccc1` [Compound 206]: the pIC50 was 6.00 to 6.52 with HCC827 cells and 6.05 to 7.00 at GST-EGFR-KD^WT (range given in mixed units). For `CCN(CC)C/C=C/C(=O)N1CCc2c(sc3ncnc(N[C@H](CCO)c4ccccc4)c23)C1` [Compound 199], the pIC50 on GST-EGFR-KD^WT is over 7.23. Regarding `Cc1sc2ncnc(N[C@H](CO)c3ccccc3)c2c1C` [Compound 4, (S)-2-(5,6-dimethylthieno[2,3-d]pyrimidin-4-ylamino)-2-phenylethanol], the pIC50 with HCC827 cells is 6.00 to 6.52. `CN(C)C/C=C/C(=O)N1CCc2c(sc3ncnc(N[C@H](CCOCc4ccccc4F)c4ccccc4)c23)C1` [Compound 218]: the pIC50 with HCC827 cells is 7.00 to 9.00; at GST-EGFR-KD^WT it was over 7.23.

For `COc1ccc(-c2c(-c3ccccc3)oc3ncnc(N[C@H](CO)c4ccccc4)c23)cc1` [Compound 35], the pIC50 with HCC827 cells is 6.52 to 7.00; on GST-EGFR-KD^WT (range given in mixed units), 6.05 to 7.00. As for `O=C(O)[C@@H](Nc1ncnc2sc3c(c12)CCCC3)c1ccccc1` [Compound 18], the pIC50 on GST-EGFR-KD^WT (range given in mixed units) was 6.05 to 7.00. Take `C=CC(=O)Nc1ccc(-c2c(-c3ccccc3)oc3ncnc(N[C@H](C)c4ccccc4)c23)cc1` [Compound 238]: the pIC50 with HCC827 cells is 7.00 to 9.00; at GST-EGFR-KD^WT (range given in mixed units) it was 6.05 to 7.00. On to `CCOC(=O)/C=C/C(=O)N1CCc2c(sc3ncnc(N[C@H](CO)c4ccccc4)c23)C1` [Compound 68], for which the pIC50 in the assay on HCC827 cells is 7.00 to 9.00. On the same count and under the same terms, in the case of `CC(=O)OC[C@@H](Nc1ncnc2oc(-c3ccccc3)c(Br)c12)c1ccccc1` [Compound 44] it was 6.00 to 6.52.

In the case of `CN(C)C/C=C/C(=O)N1CCc2c(sc3ncnc(N[C@H](COCc4ccncc4)c4ccccc4)c23)C1` [Compound 224], the results for the pIC50 in the assay with HCC827 cells and at GST-EGFR-KD^WT were 7.00 to 9.00 and over 7.23, respectively. Taken in the same sequence, the figures for `CC(=O)OC/C=C/C(=O)N1CCc2c(sc3ncnc(N[C@H](C)c4ccccc4)c23)C1` [Compound 214] were 7.00 to 9.00 and over 7.23. On to `C=CC(=O)Nc1ccc(-c2nc3c(N[C@H](CO)c4ccccc4)ncnc3o2)cc1` [Compound 154], for which the pIC50 on GST-EGFR-KD^WT (range given in mixed units) was 6.05 to 7.00. Consider `CN(C)C/C=C/C(=O)N1CCc2c(sc3ncnc(N[C@H](CO)Cc4ccccc4)c23)C1` [Compound 192], for which the pIC50 with HCC827 cells was 7.00 to 9.00; on GST-EGFR-KD^WT (range given in mixed units) it was 6.05 to 7.00. On the same counts, the results for `C=CC(=O)N1CCc2c(sc3ncnc(N[C@H](CO[Si](C)(C)C(C)(C)C)c4ccccc4)c23)C1` [Compound 15] are 6.00 to 6.52 and 6.05 to 7.00. Regarding `C[C@@H](Nc1ncnc2sc3c(c12)CCN(C(=O)/C=C/CNN1CCCCC1)C3)c1ccccc1` [Compound 212], the pIC50 with HCC827 cells was 7.00 to 9.00; at GST-EGFR-KD^WT it was over 7.23. On the same counts, the results for `CC(=O)Nc1ccc(-c2c(-c3ccccc3)oc3ncnc(N[C@H](CO)c4ccccc4)c23)cc1` [Compound 37] are 6.52 to 7.00 and 7.00 to 7.22. Taken in the same sequence, the figures for `CCC[C@@H](Nc1ncnc2sc3c(c12)CCN(C(=O)/C=C/CN(C)C)C3)c1ccccc1` [Compound 217] were 7.00 to 9.00 and over 7.23. `OC[C@@H](Nc1ncnc2sc3c(c12)CCCC3)c1ccccc1` [Compound 1, S-2-phenyl-2-(5,6,7,8-tetrahydro-benzo[4,5]thieno[2,3-d]pyrimidin-4-ylamino)-ethanol]: the pIC50 in the assay with HCC827 cells is 6.52 to 7.00; at GST-EGFR-KD^WT (range given in mixed units), 6.05 to 7.00. As to `COC(=O)[C@@H](Nc1ncnc2oc(-c3ccccc3)c(-c3ccccc3)c12)c1ccccc1` [Compound 46], the pIC50 in the assay with HCC827 cells was 6.00 to 6.52. On to `CC[C@@H](Nc1ncnc2oc(-c3ccccc3)cc12)c1ccccc1` [Compound 56], for which the pIC50 in the assay with HCC827 cells was 6.00 to 6.52. In the case of `OC[C@@H](Nc1ncnc2sc(-c3ccccc3)c(Cl)c12)c1ccccc1` [Compound 8], on GST-EGFR-KD^WT (range given in mixed units), the pIC50 is 6.05 to 7.00. For `COC[C@@H](Nc1ncnc2sc3c(c12)CCN(C(=O)/C=C/CN(C)C)C3)c1ccccc1` [Compound 229], the pIC50 is 7.00 to 9.00 in the assay with HCC827 cells and over 7.23 on GST-EGFR-KD^WT. Taken in the same sequence, the figures for `CN(C)C/C=C/C(=O)N1CCc2c(sc3ncnc(N[C@H](COCc4cccnc4)c4ccccc4)c23)C1` [Compound 231] were 7.00 to 9.00 and over 7.23. As to `O=C(O)[C@@H](Nc1ncnc2sc3c(c12)CCC3)c1ccccc1` [Compound 20], the pIC50 at GST-EGFR-KD^WT (range given in mixed units) is 6.05 to 7.00. In the case of `COCCN(C)C/C=C/C(=O)N1CCc2c(sc3ncnc(N[C@H](CO)c4ccccc4)c23)C1` [Compound 327], the pIC50 on GST-EGFR-KD^WT was over 7.23. In the case of `OC[C@@H](Nc1ncnc2sc(-c3ccccc3)cc12)c1ccccc1` [Compound 7], at GST-EGFR-KD^WT (range given in mixed units), the pIC50 was 6.05 to 7.00. With `O=C(O)[C@@H](Nc1ncnc2oc(-c3ccccc3)c(-c3ccccc3)c12)c1ccccc1` [Compound 50], at GST-EGFR-KD^WT, the pIC50 is over 7.23. `CCOC(=O)[C@@H](Nc1ncnc2oc(-c3ccccc3)c(-c3ccccc3)c12)c1ccccc1` [Compound 47]: in the assay on HCC827 cells, the pIC50 was 6.00 to 6.52. As to `C=CC(=O)Nc1cccc(-c2cc3c(N[C@H](CO)c4ccccc4)ncnc3s2)c1` [Compound 245], the values for the pIC50 in the assay with HCC827 cells and at GST-EGFR-KD^WT were 6.52 to 7.00 and over 7.23, respectively.
